Measurements taken from patent publication US20090297469A1, “Cyanoacrylate Monomer Formulation Containing Diiodomethyl-p-tolylsulfone and 2,4,4'-Trichloro-2'-Hydroxydiphenyl Ether” (priority 2004, published 2009).
Values after ≈ are worked out from the molar mass of the structure shown.

Key:
[1] = system: genus Staphylococcus, Staphylococcus epidermidis, Staphylococcus aureus, methicillin-resistant Staphylococcus epidermidis, and methicillin-resistant …; details: cited from earlier work
[2] = system: Enterococcus faecium 700221; assay: MIC/MBC by tube dilution procedure; format: cell-based; details: preliminary evaluation
Description: (§1) The effectiveness of the antimicrobial property of pure […] is described in terms of minimum inhibitory concentration (MIC) and minimum bactericidal concentration (MBC) in Table II (A). Minimum inhibitory concentration is the lowest concentration that prevents the development of visible growth after a period of incubation. Minimum bactericidal concentration is the lowest concentration that achieves a 1000 fold or greater reduction in the original bacterial inoculum. The minimum inhibitory concentration and minimum bactericidal concentration is evaluated using tube dilution procedure.

[3] = system: Staphylococcus aureus 33591; assay: MIC/MBC by tube dilution procedure; format: cell-based; details: preliminary evaluation
Description: as §1

[4] = system: S. aureus, E. coli, P. aeruginosa, K. pneumoniae, P. cepacia, E. cloacae, S. marcescens, S. pyogenes, E. faecalis-Vancomycin Resistant, C. albicans and B. …; details: reported for blends with acrylic hot melt adhesive polymers; cited from earlier work
Escherichia coli 8739 = assay: MIC/MBC by tube dilution procedure; format: cell-based; details: preliminary evaluation
Description: (§2) The effectiveness of the antimicrobial property of pure DIMPTS is described in terms of minimum inhibitory concentration (MIC) and minimum bactericidal concentration (MBC) in Table II (A). Minimum inhibitory concentration is the lowest concentration that prevents the development of visible growth after a period of incubation. Minimum bactericidal concentration is the lowest concentration that achieves a 1000 fold or greater reduction in the original bacterial inoculum. The minimum inhibitory concentration and minimum bactericidal concentration is evaluated using tube dilution procedure.

[5] = system: Staphylococcus epidermidis 51625; assay: MIC/MBC by tube dilution procedure; format: cell-based; details: preliminary evaluation
Description: as §2

[6] = system: Streptococcus agalactiae 624; assay: MIC/MBC by tube dilution procedure; format: cell-based; details: preliminary evaluation
Description: as §2

Candida albicans 10231 = assay: MIC/MBC by tube dilution procedure; format: cell-based; details: preliminary evaluation
Description: as §2

[7] = system: Pseudomonas aeruginosa 9027; assay: MIC/MBC by tube dilution procedure; format: cell-based; details: preliminary evaluation
Description: as §2

[8] = system: Staphylococcus aureus 6538; assay: MIC/MBC by tube dilution procedure; format: cell-based; details: preliminary evaluation
Description: as §2

Bacillus subtilis 902173 = assay: MIC/MBC by tube dilution procedure; format: cell-based; details: preliminary evaluation
Description: as §2

[9] = aqueous; cited from earlier work

## Oc1cc(Cl)ccc1Oc1ccc(Cl)cc1Cl [2,4,4′-trichloro-2′-hydroxydiphenyl ether]
[1]
  Antimicrobial effect: has an antimicrobial effect

## Cc1ccc(S(=O)(=O)C(I)I)cc1 [DIMPTS, diiodomethyl-p-tolylsulfone]
[2]
  MIC: 50 µg/mL (≈ 118 µM)
[3]
  MBC: < 250 µg/mL
  MIC: 12.5 µg/mL (≈ 29.6 µM)
[4]
  Zones of inhibition against several organisms: zones of inhibition
Escherichia coli 8739
  MBC: < 250 µg/mL
  MIC: 100 µg/mL (≈ 237 µM)
[5]
  MBC: < 100 µg/mL
  MIC: 25 µg/mL (≈ 59.2 µM)
[6]
  MBC: 125 to 250 µg/mL (≈ 296 to 592 µM)
  MIC: 50 µg/mL (≈ 118 µM)
Candida albicans 10231
  MBC: 10 to 100 µg/mL (≈ 23.7 to 237 µM)
  MIC: 5 µg/mL (≈ 11.8 µM)
[7]
  MIC: > 100 µg/mL
[8]
  MBC: < 250 µg/mL
  MIC: 100 µg/mL (≈ 237 µM)
Bacillus subtilis 902173
  MBC: 50 to 100 µg/mL (≈ 118 to 237 µM)
  MIC: 50 µg/mL (≈ 118 µM)

## [O-][Cl+3]([O-])([O-])O [perchloric acid]
[9]
  pKa: −5.0
